# Test results from patent US20160002297A1, “THERAPEUTIC AGENTS” (NATIONAL UNIVERSITY OF SINGAPORE, priority 2013, published 2016).
# Positions of bridges follow the written chain, without caps; N, C: chain ends. Residues, ends and D or L forms follow the SMILES beside them.
# Columns and labels:
# [1] = test system: 4T1 breast carcinoma; assay: Subcutaneous 4T1 breast carcinoma growth in mice, intravenous treatment; format: in vivo, mouse
# Protocol: FIG. 13 cRKD peptide inhibits subcutaneous 4T1 breast carcinoma growth in mice when delivered intravenously. (a) 4T1 tumor growth curve in mice. X-axis represents the days after inoculation of 1 million tumor cells. Groups consisted of mice receiving 250 μg cRAA peptide or cRKD peptide through tail vein injection every other day from day 0 (date of inoculation) to 22. N=10. (b) Tumor weight at the end of the experiment (day 22). (c) Dissected tumors at the end of experiment. […] Paraffin sections of 4T1 tumors were probed for microvascular density (MVD), tumor cell proliferation and apoptosis through IF using anti-CD31, anti-PCNA and TUNEL staining respectively. (f) Quantification of MVD, cell proliferation and apoptosis. Plots represent the mean of 3 fields per section, 3 sections per tumor and 2 tumors per group. **P<0.01. Error bars denote SEM. […] Double immunofluorescence staining using anti-CD31 (red) and TUNEL (green) is shown. Nuclei were counter stained by DAPI (blue). Representative photos are shown. Apoptotic EC is indicated by white arrow.
# [2] = test system: B16F10 melanoma; assay: Mouse tumorigenesis: subcutaneous B16F10 melanoma, intravenous treatment from day 0; format: in vivo
# Protocol: FIG. 4 Recombinant ISM and ISM derived cRKD peptide inhibit B16F10 tumour growth in vivo. A. Tumour growth curve in mice. X-axis represents the days after 5×10^5 tumour cell inoculation. Groups consisted of control mice receiving no treatment, recombinant ISM, cRKD peptide and its control-cyclic RAA peptide, given in six doses of 250 μg/mouse through tail vein injection on days 0, 2, 4, 6, 8, and 10 (5 mice in each group, each mice with one tumour). **: p<0.01,*: p<0.05, n=5. B. Tumour weight at the end of the experiment (14 days after tumour cell inoculation). C. Recombinant ISM and cRKD peptide inhibits B16F10 tumour growth. […] Paraffin sections of tumors from mice groups treated by control, ISM, cRAA and cRKD peptides were probed for microvessel density, tumor cell proliferation and apoptosis through immunofluoresence staining using anti-CD31 (A), anti-PCNA (B) and TUNEL staining (C) respectively. Representative photos are shown. (D) Quantification of microvessel density. Microvessel density is the number of microvessels per microscopic field. (E) Quantification of cell proliferation in tumor sample. Cell proliferation is presented as the percentage of PCNA positive cells out of the total number of cells (DAPI positive cells) in the microscopic field. (F) Quantification of apoptosis in tumor. Apoptosis is quantified as the percentage of TUNEL positive cells out of the total number of cells (DAPI positive cells) in the microscopic field. Plots represent the mean of 3 fields per section, 3 sections per tumor and 2 tumors per group (±SEM). ** P≦0.01, * P≦0.05; Adult 8-week-old female C57BL/6J mice were used in this study. Animal care and experimentation was carried out under the institutional guidelines issued by the local institutional animal care and use committee (IACUC; protocol 066/12). 5×10^5 B16F10 cells in 0.1 ml PBS were injected subcutaneously into the dorsal left flank of the mouse. Twenty mice were assigned into 4 different groups consisted of control mice receiving no treatment, recombinant ISM, cyclic RKD peptide and its peptide control-cyclic RAA peptide, given in six doses of 250 μg through tail vein injection on days 0, 2, 4, 6, 8, and 10 (5 mice in each group, each mice with one tumor). Health status of the mice was monitored over two weeks and visible tumor size were measured daily by calipers after 8 days until the end point (day 14). Tumor volume was calculated using the following formula: 0.52×length×(width)^2 mm^3, where the largest dimension of the tumor is considered as the length and the width is the perpendicular dimension. On day 14, mice were sacrificed, and their dorsal flank was opened and photographed to exam the vascularization. Then tumors were excised and weighed followed by either fixing in 4% paraformaldehyde for sectioning or snap-freezing in liquid nitrogen for further analysis. Paraffin-embedded tissue sections of 5 μm were deparaffinized by heating at 60° C. for 7 minutes before deparaffinizing in histoclear followed by the rehydration in graded series of alcohol (100%, 90%, 80%, and 70% ethanol in ddH2O) and finally in PBS for 5 minutes. Antigen retrieval was done in a bench-top 2100-Retriever according to the protocol of the manufacturer (Electron Microscopy Sciences, Hatfield, Pa.). The sections were blocked with 3% bovine serum albumin (BSA) in a humidified chamber for 1 hour at room temperature followed by overnight incubation with the anti-CD31 (Santa Cruz Biotechnology, Santa Cruz, Calif.), anti-PCNA antibody (Santa Cruz Biotechnology), anti-GRP78 antibody (Santa Cruz Biotechnology), or anti-His tag antibody (Santa Cruz Biotechnology) at 4° C. The following day, unbound antibody was washed with 1×PBS containing 0.1% Tween-20 (1×PBST) and incubated with the corresponding Alexafluor 568 secondary antibodies (Life Technologies) for 1.5 hours at 37° C. Sections were rinsed again and incubated for 10 minutes with DAPI at 1 μg/mL to visualize the DNA in the cell nucleus. […]
# [3] = test system: ECs; assay: Cell attachment (EC adhesion) assay; format: cell-based; conditions: peptide coated on plastic surface
# Protocol: 96-well plates were coated with 50 μl of 1 μM ISM at 4° C. overnight. Nonspecific binding sites were blocked with 1% BSA for 2 h at 37° C. ECs were harvested and incubated in CSC basal medium containing 4 μg/ml neutralizing antibodies or control IgG for 30 min. 2[…]104 cells were plated to each well and allowed to attach for 60 min at 37° C. Attached cells were fixed by 10% formalin and stained with 0.2% crystal violet. Absorbed crystal violet was extracted by 10% acetic acid and quantified by measuring the absorbance of eluted dye at 595 nm with a microplate reader.
# [4] = test system: endothelial cells (ECs); assay: Apoptosis assay (Cell Death ELISA) in cultured ECs; format: cell-based; conditions: cultured ECs in the presence of VEGF, 24 h
# Protocol: ECs (2×10^4 cells per well) in 96-well plate were starved in 2% FBS basal CSC medium for 3 h. Cells were then incubated with peptides of various concentrations and 15 ng/ml VEGF for 24 h. Apoptosis was detected by measuring cytosolic oligonucleosome-bound DNA using a Cell Death ELISA kit purchased from Roche (USA). Plots represented the mean of 3 wells of apoptotic cells in 96 well plate (±SEM).
structure (smiles),measurement,setting,value
"N=C(N)NCCC[C@@H]1NC(=O)[C@@H](N)CSSC[C@@H](C(=O)O)NC(=O)[C@H](CC(=O)O)NC(=O)[C@H](CCCCN)NC1=O [cRKD, Cyclic CRKDC peptide] (H-CRKDC-OH; disulfide 1-5; N-terminus and C-terminus assumed)",4T1 tumor growth,"[1]; 250 μg tail vein every other day, day 0 to 22, vs cRAA",suppressed subcutaneous 4T1 breast cancer growth
same,apoptosis of cancer cells and cancer ECs in 4T1 breast carcinoma,[1]; CD31/TUNEL double staining,induces apoptosis of both cancer cells and cancer ECs
same,"tumor angiogenesis, proliferation and apoptosis in 4T1 tumor","[1]; anti-CD31, anti-PCNA and TUNEL staining","suppressed tumor angiogenesis, proliferation and induced apoptosis"
same,vascularization of 4T1 tumors,[1]; compared to control,reduced vascularization
same,suppression of breast cancer growth,[1]; intravenous injection,75%
same,tumor growth,"[2]; 250 μg/mouse intravenous every 2 days, days 0-10, subcutaneous B16F10",significantly suppressed tumor growth
same,vascularization (blood vessels supplying the tumor),"[2]; 250 μg/mouse intravenous, day 14",obviously reduced
same,"tumor angiogenesis, tumor cell proliferation and tumor cell apoptosis",[2]; immunofluorescence of tumor sections,"suppress tumor angiogenesis, tumor cell proliferation and induce tumor cell apoptosis"
same,suppression of subcutaneous mouse melanoma growth,[2]; intravenous injection,75%
same,increase of apoptosis in the tumor tissue (TUNEL),[2]; quantitation of tumor sections,more than 3 fold
same,suppression of tumor angiogenesis (tumor vessel density),[2]; quantitation of tumor sections,more than 3 fold
same,suppression of tumor cell proliferation (PCNA),[2]; quantitation of tumor sections,more than 2 fold
same,apoptosis of tumor cells and tumor ECs (CD31/TUNEL double staining),"[2]; tumor sections, compared to controls",both tumor cells as well as tumor ECs became apoptotic
same,tumor vessel density (anti-CD31 immunofluorescence),[2]; tumor tissue sections,obvious reduction of tumor vessel density
same,EC attachment and adhesion,[3],mediated EC attachment and adhesion
same,induction of EC apoptosis (pro-apoptotic activity),[4],potently induced apoptosis
same,induction of EC apoptosis (pro-apoptotic activity),[4]; listed as RKD,equally potent comparing to “RKLYD”
